Measurements as given in patent publication US11813277B2, “Methods and agents for modulating inflammation” (The Regents of the University of California, priority 2018, dated 2023).

How the values were obtained:
LCFA oxidation in BMDMs = test: 9,10-3H-palmitate oxidation (3H2O release) in BMDMs; format: cell-based, mouse; conditions: 200 nM rotenone or 200 nM antimycin A, IL-4-stimulated
Description: BMDMs at day 6 of differentiation were seeded at 3×10^5 cells/well in 12 well plates in BMDM media. The next day, cells were treated in DMEM containing 25 mM glucose supplemented with 5% FBS, 2 mM L-Glutamax, 100 units/mL, 100 μg/mL penicillin/streptomycin, 1 mM of sodium pyruvate, 1 mM carnitine, and 5% v/v conditioned media containing macrophage colony stimulating factor (M-CSF) under one of 5 conditions: control, 20 ng/mL of IL-4±3 μM or 200 μM of etomoxir, or 200 nM rotenone, or 200 nM antimycin A for 24 hr. Fatty acid oxidation was measured 24 hours later as previously described (Rognstad, R. (1991) Estimation of peroxisomal and mitochondrial fatty acid oxidation in rat hepatocytes using tritiated substrates. Biochem J 279:147-150, 1991; Cha, B. S., Ciaraldi, T. P., Park, K. S., Carter, L., Mudaliar, S. R., and Henry R R. (2005) Impaired fatty acid metabolism in type 2 diabetic skeletal muscle cells is reversed by PPARgamma agonists. Am J Physiol Endocrinol Metab. 289, E151-9) following a fluid change to DMEM with components as described above except 10 mM glucose and 0.2 μCi (final concentration of 5 μM) BSA-conjugated [9,10-3H]palmitic acid. No additional IL-4 was added at the time of this fluid change, but etomoxir, rotenone and antimycin A were added, and the plates were placed in a […] incubator at 37° C. for 3 hr. After incubation, a 100 μL aliquot of the culture medium was passed over an ion-exchange resin, and the column was washed twice with 0.75 ml of water. Free fatty acids were retained by the resin, whereas the tritium hydrolyzed from radiolabeled palmitate catabolism was released as labeled water, which passes freely through the resin, and is subsequently counted for radioactivity. All data are corrected for protein content in each well. There were 3 technical replicates for each condition, and 4 biological replicates arising from 4 separate animals.

BMDMs [1] = test: Basal mitochondrial respiration in intact BMDMs; format: cell-based, mouse
Description: All respirometry studies were conducted in either a Seahorse XF96 or XFe96 Analyzer. All experiments were conducted at 37° C., and at pH 7.4 (intact cells) or 7.2 (permeabilized cells and isolated mitochondria). Calculation of respiratory parameters was made according to standard protocols (Divakaruni, A. S., Paradyse, A., Ferrick, D. A., Murphy, A. N., and Jastroch, M. (2014a) Analysis and interpretation of microplate-based oxygen consumption and pH data. Meth. Enzym 547, 509-54), and all rates were corrected for non-mitochondrial respiration/background signal by subtracting the oxygen consumption rate insensitive to rotenone plus antimycin A.
Respiration in intact BMDMs was measured in medium containing 8 mM glucose, 2 mM glutamine, 2 mM pyruvate, and 5 mM HEPES. Cells were plated at 5.0×10^4 cells/well and assayed after 48 hr. When measuring the response to IL-4, cells were treated with 20 ng/mL of IL-4 24 hr. after initial plating, and respiration was measured the following day (˜48 hr after initial seeding). […]

[2] = system: M(IL-4) polarization of BMDMs; test: Flow cytometry of IL-4-associated cell surface markers in BMDMs; format: cell-based, mouse
Description: (§1) For all gene expression and flow cytometry experiments described below, day 6 BMDM were plated at 3×10^5 cell/well in 12-well plates. The next day, cells were treated with appropriate compounds (and duration as indicated in figures and below) in DMEM supplemented with 5% FBS, 2 mM L-glutamine, 100 units/mL, 100 μg/mL penicillin/streptomycin, 500 μM of sodium pyruvate and 5% v/v conditioned media containing macrophage colony stimulating factor (M-CSF).
(§2) For flow cytometry experiments involving etomoxir (FIG. 1G, FIG. 2A, FIG. 2D, FIG. 3A, FIG. 3B, FIG. 3G, FIG. 3H): BMDMs were mock-treated (media replacement only) or treated with 20 ng/mL of IL-4±3 μM or 200 μM of etomoxir for 48 hr. When measuring expression of M(IL-4)-associated genes in response to etomoxir (FIG. 1H, FIG. 2B), BMDMs were mock-treated or treated with 20 ng/mL of IL4±etomoxir as indicated for 24 hr.
(§3) For experiments involving respiratory chain inhibitors: BMDMs were mock-treated (media replacement only) or treated with 20 ng/mL of IL4±1.2 μM oligomycin (Oligo), 200 nM rotenone (Rot), 200 nM antimycin A (AntiA), 100 nM piericidin A (PierA), or 5 μM carboxyatractylate (CAT) for either 24 (FIG. 4G, FIG. 4H, FIG. 6G) or 48 hr (FIG. 4F, FIG. 7D). All inhibitors were given as co-treatments simultaneously with IL-4.
For experiments involving CoA supplementation (FIG. 10A, FIG. 10B, FIG. 10C, FIG. 10D, FIG. 10E, FIG. 9C, FIG. 9D): BMDMs were mock-treated (media replacement only) or treated with 20 ng/mL of IL4±etomoxir (concentration indicated in figures)±CoA (concentration indicated in figures) for 48 hr. Etomoxir and CoA were given as co-treatments simultaneously with IL-4.
Prior to FACS analysis, BMDMs were detached using 350 μL of Accutase, followed by two washes with FACS buffer (PBS+1% (v/v) BSA+0.05% (w/v) sodium azide). Anti-mouse CD16/32 antibody was used at a dilution of 1:500, while all other antibodies were used at a dilution of 1:250. All flow cytometry data were captured using BD FACSVerse flow cytometer and analyzed using the FlowJo X 10.0.7r2 software. In all, 2×104 live events were acquired for each sample (gated on DAPIneg). For analysis, CD206+/CD71+ and CD206+/CD301+ populations were gated based on Fluorescence Minus One (FMO) controls.

[3] = system: Relma, Mgl2, Ym1, Fabp4, Arg1 expression; test: qPCR of IL-4-associated genes in BMDMs; format: cell-based, mouse; conditions: IL-4, 24 hr
Description: as §1, §2, §3
RNA was isolated with TRIzol, then cDNA was synthesized with high-capacity cDNA reverse transcription kit. KAPA SYBR FAST qPCR Master Mix kit and a LightCycler 480 were used for quantitative RT-PCR. Fold change related to the control group was calculated using […] with 36b4 as the reference gene.

BMDMs [4] = test: Cellular ATP production rates from respirometry and lactate assay; format: cell-based, mouse; conditions: 200 nM rotenone, IL-4 24 hr
Description: Respiration in intact BMDMs was measured in medium containing 8 mM glucose, 2 mM glutamine, 2 mM pyruvate, and 5 mM HEPES. Cells were plated at 5.0×10^4 cells/well and assayed after 48 hr. When measuring the response to IL-4, cells were treated with 20 ng/mL of IL-4 24 hr. after initial plating, and respiration was measured the following day (˜48 hr after initial seeding). Respiration was measured in response to oligomycin (1 μM), FCCP (1.2 μM), and rotenone (0.2 μM) with antimycin A (1 μM).
Under conditions matching intact cell respirometry for BMDMs, the extracellular medium was harvested and lactate was analyzed as previously described (Mookerjee, S. A., Goncalves, R. L., Gerencser, A. A., Nicholls, D. G., and Brand, M. D. (2015). The contributions of respiration and glycolysis to extracellular acid production. Biochim et Biophys Acta. 1847, 171-81; Divakaruni, A. S., Wallace, M., Buren, C., Martyniuk, K., Andreyev, A. Y., Li, E., Fields, J. A., Cordes, T., Reynolds, I. J., Bloodgood, B. L., et al., (2017b) Inhibition of the mitochondrial pyruvate carrier protects from excitotoxic neuronal death. J. Cell Biol. 216, 1091-1105). […] The reaction velocity was measured after 2 min (340/460 nm excitation/emission). […]

diet-induced NASH = test: Rat model of diet-induced NASH; format: in vivo
BMDMs [5] = test: Intracellular free coenzyme A levels in BMDMs; format: cell-based, mouse; conditions: IL-4
Description: On Day 6 of differentiation, BMDMs were seeded at 1.2×10^6 cells/well in 6-well plates. 24 hr later, BMDMs were mock-treated or co-treated with 20 ng/mL IL-4±200 μM etomoxir±500 μM CoA in DMEM supplemented with 5% FBS, 2 mM L-glutamine, 100 units/mL, […] penicillin/streptomycin, 500 μM of sodium pyruvate and 5% v/v conditioned media containing macrophage colony stimulating factor (M-CSF) for 20 hr. Prior to sample collections, cells were washed with 600 μL of 0.9% (w/v) NaCl twice. Three wells per replicate per treatment were combined in 2 mL centrifuge tubes and centrifuged at 500 g for 5 mins at 4° C. The supernatant was removed, and the cell pellet was re-suspended in 75 μL of ice-cold 0.7% (v/v) perchloric acid for 5 min. Samples were then centrifuged at 10,000 g for 7 mins at 4° C. and the resulting supernatant was adjusted to pH 7 with 2M NaOH and 500 mM K2HPO4. The coenzyme A concentration was determined with Coenzyme A Assay Kit following manufacturer's instructions (Sigma MAK034) using 40 μL of sample supernatant. Coenzyme A levels were normalized to total cellular protein (BCA method).

acute liver injury = test: Murine acute liver injury model; format: in vivo
Limonoids sigmodontis = test: Murine model of nematode infection; conditions: mouse, in vivo
[6] = 500 μM CoA, absence of etomoxir

Question: What does the source list for `C=C(C)[C@H]1Cc2c(ccc3c2O[C@@H]2COc4cc(OC)c(OC)cc4[C@@H]2C3=O)O1` [rotenone]?
Answer: 3H2O release from 9,10-3H-palmitate (LCFA oxidation in BMDMs): suppressed LCFA oxidation to levels in line with 200 μM etomoxir; respiration at 24 hr (BMDMs [1]; 1.2 μM oligomycin, 200 nM rotenone, 200 nM antimycin A, 100 nM piericidin A, 5 μM CAT): strongly reduced respiration; population of CD206+/CD71+ cells ([2]; oxidative phosphorylation inhibitors co-treated with IL-4): none of the inhibitors of ATP synthesis or the electron transport chain significantly lowered; IL-4-induced expression of Relma, Ym1, Mgl2 ([3]; electron transport chain inhibitors): failed to reduce; expression of Ym1 and Arg1 ([3]; mitochondrial inhibitors): increased expression; ATP production from oxidative phosphorylation (BMDMs [4]): limited ATP production from oxidative phosphorylation; overall rates of energy metabolism (ATP production) (BMDMs [4]): maintain overall rates of energy metabolism

Question: How did the “expression of alternative macrophage activation biomarkers” value (diet-induced NASH; Kupffer cells and/or myeloid-derived precursors from the liver) turn out when `CC(CNC(=O)[C@H](O)C(C)(C)CO)C(=O)NCCc1ccccc1` (stereo partly drawn) [alpha-methyl-N-phenethyl-pantothenamide] was run?
Answer: Its value is “Decreased expression”.

Question: And the “inflammation and fibrosis in the liver” value (diet-induced NASH; intravenous)?
Answer: Its value is “reduce inflammation and fibrosis in the liver”.

Question: How did the “intracellular free CoA levels” value (BMDMs [5]; 500 μM CoA with 200 μM etomoxir) turn out when `CC(C)(COP(=O)(O)OP(=O)(O)OC[C@H]1O[C@@H](n2cnc3c(N)ncnc32)[C@H](O)[C@@H]1OP(=O)(O)O)[C@@H](O)C(=O)NCCC(=O)NCCS` [CoA, [(2R,3S,4R,5R)-5-(6-aminopurin-9-yl)-4-hydroxy-3-phosphonooxy-oxolan-2-yl]methyl [hydroxy-[(3R)-3-hydroxy-2,2-dimethyl-4-oxo-4-[[3-oxo-3-(2-sulfanylethylamino)propyl]amino]butoxy]phosphoryl] hydrogen phosphate] was run?
Answer: Its value is “could be restored”.

Question: And the “intracellular free CoA levels” value (BMDMs [5]; [6])?
Answer: Its value is “significantly increased”.

Question: What about the basal respiration (BMDMs [1]; CoA supplementation, BMDMs treated with excess etomoxir) of the same compound?
Answer: The basal respiration was “did not alter basal respiration”.

Question: And the oxygen consumption (BMDMs [1]; CoA with IL-4)?
Answer: The oxygen consumption was “does not enhance oxygen consumption”.

Question: What about the “healing time and resolution of injury” value (acute liver injury; intravenous) of the same compound?
Answer: The value was “decrease healing time and improve the extent of resolution from the injury”.

Question: And the “expression of alternative liver macrophage activation biomarkers” value (acute liver injury; peritoneal macrophages and/or Kupffer cells)?
Answer: Its value is “Increased expression”.

Question: What about the “parasite burden and replication” value (Limonoids sigmodontis) of the same compound?
Answer: Its value is “reduce parasite burden and replication”.

Question: And the “rescue of cell surface marker expression” value ([2]; 200 μM etomoxir, varying CoA)?
Answer: Its value is “concentration-dependent function of exogenously added CoA”.

Question: What about the “reduction of CD206+/CD71+ cells upon etomoxir treatment” value ([2]; 500 μM CoA with 200 μM etomoxir, IL-4) of the same compound?
Answer: The value was “can be rescued”.

Question: And the “IL-4-induced expression of CD206 and CD71” value [2, 6]?
Answer: Its value is “significantly increased”.

Question: And the polarization ([2]; CoA, absence of IL-4)?
Answer: The polarization was “no effect on polarization”.

Question: What about the “etomoxir-induced reduction in CD206+/CD71+ cells” value ([2]; LysM-Cre Cpt1a-/-, LysM-Cre Cpt2-/-, CD11c-Cre Cpt1a-/- BMDMs, 200 μM etomoxir, 500 μM CoA) of the same compound?
Answer: Its value is “could be rescued”.
